Measured values reported in the kinase profiling compilation of Christmann-Franck et al. (2016).

How the values were obtained:
Assay in all cases: radiometric filter-binding kinase assay
SYK (human) = SYK (human) (UniProt P43405)
IGF1R (human) = IGF1R (human) (UniProt P08069)
MAPK13 (human) = MAPK13 (human) (UniProt O15264)
PLK1 (human) = PLK1 (human) (UniProt P53350)
SRC (human) = SRC (human) (UniProt P12931)
HIPK3 (human) = HIPK3 (human) (UniProt Q9H422)
MAP3K7 TAB1 (human) = MAP3K7 TAB1 (human) (UniProt Q15750+O43318)
PAK6 (human) = PAK6 (human) (UniProt Q9NQU5)
Sequence of PAK6 (human) (Q9NQU5 whole entry, looked up): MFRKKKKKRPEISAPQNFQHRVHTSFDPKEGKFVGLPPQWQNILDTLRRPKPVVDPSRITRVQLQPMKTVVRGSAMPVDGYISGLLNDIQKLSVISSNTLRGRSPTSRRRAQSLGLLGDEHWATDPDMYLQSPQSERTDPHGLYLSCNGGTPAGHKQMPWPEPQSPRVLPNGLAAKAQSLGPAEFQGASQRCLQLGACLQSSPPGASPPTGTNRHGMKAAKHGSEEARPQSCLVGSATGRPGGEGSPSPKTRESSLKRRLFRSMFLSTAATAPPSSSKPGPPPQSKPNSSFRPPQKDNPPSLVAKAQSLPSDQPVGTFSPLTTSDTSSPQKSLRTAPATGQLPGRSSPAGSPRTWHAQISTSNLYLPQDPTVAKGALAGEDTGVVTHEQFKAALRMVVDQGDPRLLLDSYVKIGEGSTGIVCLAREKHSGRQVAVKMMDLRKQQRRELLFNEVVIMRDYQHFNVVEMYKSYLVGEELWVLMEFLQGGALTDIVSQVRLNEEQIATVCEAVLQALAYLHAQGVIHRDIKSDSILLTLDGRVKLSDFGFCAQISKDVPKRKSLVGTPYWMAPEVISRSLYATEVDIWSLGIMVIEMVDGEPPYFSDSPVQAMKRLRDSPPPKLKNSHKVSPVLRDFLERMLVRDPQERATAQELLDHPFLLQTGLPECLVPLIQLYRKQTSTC

YES1 (human) = YES1 (human) (UniProt P07947)
GSK3B (human) = GSK3B (human) (UniProt P49841)
INSR (human) = INSR (human) (UniProt P06213); conditions: compound 0.1 µM
EPHB4 (human) = EPHB4 (human) (UniProt P54760)
MARK4 (human) = MARK4 (human) (UniProt Q96L34)
Sequence of MARK4 (human) (Q96L34 whole entry, looked up): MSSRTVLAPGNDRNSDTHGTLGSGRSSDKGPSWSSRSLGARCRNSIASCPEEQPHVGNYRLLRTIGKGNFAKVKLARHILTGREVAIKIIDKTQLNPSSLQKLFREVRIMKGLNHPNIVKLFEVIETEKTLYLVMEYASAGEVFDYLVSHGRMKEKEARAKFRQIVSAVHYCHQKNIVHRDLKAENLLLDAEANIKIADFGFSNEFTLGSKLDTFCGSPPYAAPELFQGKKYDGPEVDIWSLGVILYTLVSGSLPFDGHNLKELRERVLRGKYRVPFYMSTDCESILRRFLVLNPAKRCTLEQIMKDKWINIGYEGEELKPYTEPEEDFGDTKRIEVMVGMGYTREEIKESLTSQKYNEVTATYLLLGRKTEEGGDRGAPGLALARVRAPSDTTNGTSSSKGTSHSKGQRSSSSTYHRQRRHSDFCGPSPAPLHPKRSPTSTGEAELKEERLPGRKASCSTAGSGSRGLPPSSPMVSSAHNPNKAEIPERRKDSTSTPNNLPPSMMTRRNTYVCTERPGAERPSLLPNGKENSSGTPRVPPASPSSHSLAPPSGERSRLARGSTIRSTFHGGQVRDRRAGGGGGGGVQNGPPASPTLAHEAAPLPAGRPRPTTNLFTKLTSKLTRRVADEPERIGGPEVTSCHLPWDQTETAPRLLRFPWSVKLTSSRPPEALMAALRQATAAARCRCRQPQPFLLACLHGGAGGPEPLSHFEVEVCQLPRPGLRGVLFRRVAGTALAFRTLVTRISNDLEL

MAPK1 (human) = MAPK1 (human) (UniProt P28482)
PKN2 (human) = PKN2 (human) (UniProt Q16513)
EPHA4 (human) = EPHA4 (human) (UniProt P54764)
MAP3K9 (human) = MAP3K9 (human) (UniProt P80192)
DAPK1 (human) = DAPK1 (human) (UniProt P53355)
EPHB1 (human) = EPHB1 (human) (UniProt P54762)
Sequence of EPHB1 (human) (P54762 whole entry, looked up): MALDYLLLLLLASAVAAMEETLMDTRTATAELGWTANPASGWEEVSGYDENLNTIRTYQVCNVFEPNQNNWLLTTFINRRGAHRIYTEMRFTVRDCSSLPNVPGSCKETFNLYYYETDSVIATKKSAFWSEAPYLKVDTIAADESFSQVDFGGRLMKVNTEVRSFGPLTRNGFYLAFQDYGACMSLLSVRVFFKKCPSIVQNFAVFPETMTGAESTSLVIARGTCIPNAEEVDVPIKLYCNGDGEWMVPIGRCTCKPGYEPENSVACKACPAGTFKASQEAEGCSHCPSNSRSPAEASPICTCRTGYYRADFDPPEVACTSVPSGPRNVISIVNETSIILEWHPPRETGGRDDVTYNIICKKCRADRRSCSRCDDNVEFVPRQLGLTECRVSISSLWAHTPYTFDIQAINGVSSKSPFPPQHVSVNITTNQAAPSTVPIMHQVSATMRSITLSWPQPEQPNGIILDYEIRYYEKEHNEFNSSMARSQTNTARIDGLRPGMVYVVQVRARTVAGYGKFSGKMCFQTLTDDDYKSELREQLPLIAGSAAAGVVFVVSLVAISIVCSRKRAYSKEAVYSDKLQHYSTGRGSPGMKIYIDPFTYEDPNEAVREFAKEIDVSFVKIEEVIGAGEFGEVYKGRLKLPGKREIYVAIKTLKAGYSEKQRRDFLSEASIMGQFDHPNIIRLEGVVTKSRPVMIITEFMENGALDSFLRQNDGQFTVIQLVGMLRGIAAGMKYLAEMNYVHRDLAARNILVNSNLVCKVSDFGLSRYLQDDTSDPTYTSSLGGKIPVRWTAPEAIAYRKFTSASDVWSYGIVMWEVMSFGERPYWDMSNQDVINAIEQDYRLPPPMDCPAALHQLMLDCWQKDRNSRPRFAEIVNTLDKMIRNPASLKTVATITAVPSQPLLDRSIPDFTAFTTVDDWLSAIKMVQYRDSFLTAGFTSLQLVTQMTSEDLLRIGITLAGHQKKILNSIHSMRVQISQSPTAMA

CSK (human) = CSK (human) (UniProt P41240); conditions: compound 10.0 µM
MAP3K1 (human) = MAP3K1 (human) (UniProt Q13233)
PRKCZ (human) = PRKCZ (human) (UniProt Q05513)
Sequence of PRKCZ (human) (Q05513 whole entry, looked up): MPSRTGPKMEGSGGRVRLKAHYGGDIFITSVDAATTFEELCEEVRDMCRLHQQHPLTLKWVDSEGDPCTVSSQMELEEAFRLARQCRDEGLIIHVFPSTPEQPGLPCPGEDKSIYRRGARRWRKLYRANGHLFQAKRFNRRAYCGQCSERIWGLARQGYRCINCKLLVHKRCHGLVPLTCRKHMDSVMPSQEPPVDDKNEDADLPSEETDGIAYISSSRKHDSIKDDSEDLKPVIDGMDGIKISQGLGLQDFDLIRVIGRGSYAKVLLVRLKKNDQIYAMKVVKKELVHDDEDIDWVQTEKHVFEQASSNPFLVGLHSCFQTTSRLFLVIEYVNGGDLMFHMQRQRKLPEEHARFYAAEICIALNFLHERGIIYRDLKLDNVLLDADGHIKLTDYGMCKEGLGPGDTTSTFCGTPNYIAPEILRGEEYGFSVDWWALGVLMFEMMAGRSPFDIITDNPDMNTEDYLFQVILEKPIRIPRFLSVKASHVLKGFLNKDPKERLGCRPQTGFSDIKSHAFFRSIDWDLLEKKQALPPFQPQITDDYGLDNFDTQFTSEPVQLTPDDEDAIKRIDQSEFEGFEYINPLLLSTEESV

LCK (mouse) = conditions: compound 1.0 µM; accession and sequence are those of the human protein
CAMKK2 (human) = CAMKK2 (human) (UniProt Q96RR4)
HIPK1 (human) = HIPK1 (human) (UniProt Q86Z02)
MAP3K5 (human) = MAP3K5 (human) (UniProt Q99683)
PAK7 (human) = PAK7 (human) (UniProt Q9P286)
ROCK2 (rat) = conditions: accession and sequence are those of the human protein
EPHB3 (human) = EPHB3 (human) (UniProt P54753)
Sequence of EPHB3 (human) (P54753 whole entry, looked up): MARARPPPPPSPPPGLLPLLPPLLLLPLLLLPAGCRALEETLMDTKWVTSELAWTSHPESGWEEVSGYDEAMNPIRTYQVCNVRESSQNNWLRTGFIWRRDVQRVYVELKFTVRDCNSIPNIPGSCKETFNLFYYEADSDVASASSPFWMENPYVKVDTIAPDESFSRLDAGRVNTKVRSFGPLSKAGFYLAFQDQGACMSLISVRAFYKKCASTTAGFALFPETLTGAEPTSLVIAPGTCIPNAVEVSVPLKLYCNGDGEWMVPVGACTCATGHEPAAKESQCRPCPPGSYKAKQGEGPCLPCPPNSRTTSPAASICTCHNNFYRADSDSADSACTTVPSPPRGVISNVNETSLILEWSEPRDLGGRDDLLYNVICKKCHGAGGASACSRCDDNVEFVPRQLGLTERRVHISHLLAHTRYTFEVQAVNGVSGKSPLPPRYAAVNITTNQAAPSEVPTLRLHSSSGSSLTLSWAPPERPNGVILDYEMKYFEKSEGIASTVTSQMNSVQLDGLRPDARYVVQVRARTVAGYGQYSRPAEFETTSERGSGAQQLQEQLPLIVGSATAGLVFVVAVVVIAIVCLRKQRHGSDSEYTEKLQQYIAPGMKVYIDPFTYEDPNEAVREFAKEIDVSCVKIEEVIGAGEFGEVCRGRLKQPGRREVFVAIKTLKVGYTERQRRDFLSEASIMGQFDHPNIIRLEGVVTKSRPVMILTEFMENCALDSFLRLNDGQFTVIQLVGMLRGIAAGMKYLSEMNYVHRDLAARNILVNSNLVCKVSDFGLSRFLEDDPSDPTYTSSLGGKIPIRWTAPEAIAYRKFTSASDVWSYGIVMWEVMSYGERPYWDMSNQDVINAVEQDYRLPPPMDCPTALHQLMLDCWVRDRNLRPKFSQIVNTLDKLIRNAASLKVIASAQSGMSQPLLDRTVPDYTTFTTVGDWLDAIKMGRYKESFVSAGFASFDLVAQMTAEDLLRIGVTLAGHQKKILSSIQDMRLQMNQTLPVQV

[1] = tested on: AKT2 (human), P31751 [S474D]
MAPK11 (human) = MAPK11 (human) (UniProt Q15759)
RPS6KA5 KD1 KD2 (human) = RPS6KA5 KD1 KD2 (human) (UniProt O75582)
BRSK2 (human) = BRSK2 (human) (UniProt Q8IWQ3)
Sequence of BRSK2 (human) (Q8IWQ3 whole entry, looked up): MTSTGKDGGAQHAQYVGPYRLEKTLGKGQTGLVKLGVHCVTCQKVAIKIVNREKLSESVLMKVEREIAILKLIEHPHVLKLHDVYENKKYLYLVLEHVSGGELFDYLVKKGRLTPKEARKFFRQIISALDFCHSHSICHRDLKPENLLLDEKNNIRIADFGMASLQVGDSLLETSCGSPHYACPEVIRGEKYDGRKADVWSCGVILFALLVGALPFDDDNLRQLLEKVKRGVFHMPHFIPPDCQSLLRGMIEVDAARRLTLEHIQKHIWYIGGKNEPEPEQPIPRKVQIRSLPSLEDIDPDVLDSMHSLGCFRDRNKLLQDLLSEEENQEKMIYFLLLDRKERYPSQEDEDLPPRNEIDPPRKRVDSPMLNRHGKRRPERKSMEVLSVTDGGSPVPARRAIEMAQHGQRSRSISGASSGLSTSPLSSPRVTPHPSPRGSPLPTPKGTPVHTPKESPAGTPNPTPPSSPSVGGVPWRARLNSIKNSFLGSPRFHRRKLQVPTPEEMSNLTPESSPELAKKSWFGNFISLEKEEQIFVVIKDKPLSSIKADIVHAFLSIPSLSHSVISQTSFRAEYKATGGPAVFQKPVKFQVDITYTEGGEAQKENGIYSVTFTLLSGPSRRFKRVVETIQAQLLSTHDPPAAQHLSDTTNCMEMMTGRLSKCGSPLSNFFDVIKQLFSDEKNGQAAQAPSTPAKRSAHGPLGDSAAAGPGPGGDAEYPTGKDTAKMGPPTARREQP

HIPK2 (human) = HIPK2 (human) (UniProt Q9H2X6)
CLK2 (human) = CLK2 (human) (UniProt P49760)
PRKAA1 or PRKAA2 (rat) = conditions: accession and sequence are those of the human protein

residual activity (SYK (human); compound 0.1 µM): 94% | residual activity (SYK (human); compound 10.0 µM): 82% | residual activity (IGF1R (human); compound 0.1 µM): 101% | residual activity (IGF1R (human); compound 1.0 µM): 108% | residual activity (IGF1R (human); compound 10.0 µM): 114% | residual activity (MAPK13 (human); compound 0.1 µM): 108% | residual activity (MAPK13 (human); compound 1.0 µM): 103% | residual activity (MAPK13 (human); compound 10.0 µM): 94% | residual activity (PLK1 (human); compound 0.1 µM): 102% | residual activity (PLK1 (human); compound 1.0 µM): 114% | residual activity (PLK1 (human); compound 10.0 µM): 98% | residual activity (SRC (human); compound 0.1 µM): 110% | residual activity (SRC (human); compound 1.0 µM): 116% | residual activity (SRC (human); compound 10.0 µM): 100% | residual activity (HIPK3 (human); compound 0.1 µM): 112% | residual activity (HIPK3 (human); compound 1.0 µM): 108% | residual activity (HIPK3 (human); compound 10.0 µM): 96% | residual activity (MAP3K7 TAB1 (human); compound 0.1 µM): 113% | residual activity (MAP3K7 TAB1 (human); compound 1.0 µM): 109% | residual activity (MAP3K7 TAB1 (human); compound 10.0 µM): 70% | residual activity (PAK6 (human); compound 0.1 µM): 117% | residual activity (PAK6 (human); compound 1.0 µM): 106% | residual activity (PAK6 (human); compound 10.0 µM): 116% | residual activity (YES1 (human); compound 0.1 µM): 112% | residual activity (YES1 (human); compound 1.0 µM): 89% | residual activity (YES1 (human); compound 10.0 µM): 55% | residual activity (GSK3B (human); compound 0.1 µM): 126% | residual activity (GSK3B (human); compound 1.0 µM): 99% | residual activity (GSK3B (human); compound 10.0 µM): 88% | residual activity (INSR (human)): 123% | residual activity (EPHB4 (human); compound 0.1 µM): 110% | residual activity (EPHB4 (human); compound 1.0 µM): 106% | residual activity (EPHB4 (human); compound 10.0 µM): 99% | residual activity (MARK4 (human); compound 0.1 µM): 107% | residual activity (MARK4 (human); compound 1.0 µM): 87% | residual activity (MARK4 (human); compound 10.0 µM): 49% | residual activity (MAPK1 (human); compound 0.1 µM): 102% | residual activity (MAPK1 (human); compound 10.0 µM): 81% | residual activity (PKN2 (human); compound 0.1 µM): 108% | residual activity (PKN2 (human); compound 1.0 µM): 101% | residual activity (PKN2 (human); compound 10.0 µM): 81% | residual activity (EPHA4 (human); compound 0.1 µM): 99% | residual activity (EPHA4 (human); compound 1.0 µM): 103% | residual activity (EPHA4 (human); compound 10.0 µM): 78% | residual activity (MAP3K9 (human); compound 0.1 µM): 99% | residual activity (MAP3K9 (human); compound 1.0 µM): 95% | residual activity (DAPK1 (human); compound 0.1 µM): 103% | residual activity (DAPK1 (human); compound 1.0 µM): 62% | residual activity (DAPK1 (human); compound 10.0 µM): 15% | residual activity (EPHB1 (human); compound 0.1 µM): 113% | residual activity (EPHB1 (human); compound 1.0 µM): 106% | residual activity (EPHB1 (human); compound 10.0 µM): 106% | residual activity (CSK (human)): 106% | residual activity (MAP3K1 (human); compound 0.1 µM): 102% | residual activity (MAP3K1 (human); compound 1.0 µM): 109% | residual activity (MAP3K1 (human); compound 10.0 µM): 109% | residual activity (PRKCZ (human); compound 0.1 µM): 115% | residual activity (PRKCZ (human); compound 1.0 µM): 112% | residual activity (PRKCZ (human); compound 10.0 µM): 106% | residual activity (LCK (mouse)): 95% | residual activity (CAMKK2 (human); compound 0.1 µM): 107% | residual activity (CAMKK2 (human); compound 10.0 µM): 28% | residual activity (HIPK1 (human); compound 0.1 µM): 111% | residual activity (HIPK1 (human); compound 1.0 µM): 104% | residual activity (HIPK1 (human); compound 10.0 µM): 130% | residual activity (MAP3K5 (human); compound 0.1 µM): 106% | residual activity (MAP3K5 (human); compound 1.0 µM): 80% | residual activity (MAP3K5 (human); compound 10.0 µM): 10% | residual activity (PAK7 (human); compound 0.1 µM): 108% | residual activity (PAK7 (human); compound 1.0 µM): 101% | residual activity (PAK7 (human); compound 10.0 µM): 101% | residual activity (ROCK2 (rat); compound 0.1 µM): 112% | residual activity (ROCK2 (rat); compound 1.0 µM): 96% | residual activity (ROCK2 (rat); compound 10.0 µM): 95% | residual activity (EPHB3 (human); compound 0.1 µM): 98% | residual activity (EPHB3 (human); compound 1.0 µM): 88% | residual activity (EPHB3 (human); compound 10.0 µM): 85% | residual activity ([1]; compound 1.0 µM): 90% | residual activity ([1]; compound 10.0 µM): 69% | residual activity (MAPK11 (human); compound 0.1 µM): 118% | residual activity (MAPK11 (human); compound 1.0 µM): 126% | residual activity (MAPK11 (human); compound 10.0 µM): 117% | residual activity (RPS6KA5 KD1 KD2 (human); compound 0.1 µM): 120% | residual activity (RPS6KA5 KD1 KD2 (human); compound 1.0 µM): 105% | residual activity (RPS6KA5 KD1 KD2 (human); compound 10.0 µM): 99% | residual activity (BRSK2 (human); compound 0.1 µM): 77% | residual activity (BRSK2 (human); compound 1.0 µM): 32% | residual activity (BRSK2 (human); compound 10.0 µM): 8% | residual activity (HIPK2 (human); compound 1.0 µM): 113% | residual activity (HIPK2 (human); compound 10.0 µM): 78% | residual activity (CLK2 (human); compound 0.1 µM): 86% | residual activity (CLK2 (human); compound 1.0 µM): 43% | residual activity (CLK2 (human); compound 10.0 µM): 9% | residual activity (PRKAA1 or PRKAA2 (rat); compound 0.1 µM): 93% | residual activity (PRKAA1 or PRKAA2 (rat); compound 1.0 µM): 38% | residual activity (PRKAA1 or PRKAA2 (rat); compound 10.0 µM): 9%
SMILES: Cc1ccc(-c2ccc3c(ccc4sc5c(c43)NC[C@@H](C)NC5=O)n2)cn1
